Assay results as given in patent publication US8445674B2, “Heterocyclyl compounds” (Hoffmann-La Roche Inc, priority 2009, dated 2013).

These molecules were tested against T1, human chemokine receptor 2 isoform B (Homo sapiens, UniProt P41597) (assay: Calcium mobilization assay (FLIPR, antagonist activity against MCP-1)). Conditions: Ca mobilisation assay, CHOK1-CCR2B-A5 cells, inhibition of calcium increase induced by 20 nM MCP-1.
T1 construct: host or cells: CHOK1-CCR2B-A5 cells (CHO-K1)
T1 sequence (P41597 1-360 isoform P41597-2): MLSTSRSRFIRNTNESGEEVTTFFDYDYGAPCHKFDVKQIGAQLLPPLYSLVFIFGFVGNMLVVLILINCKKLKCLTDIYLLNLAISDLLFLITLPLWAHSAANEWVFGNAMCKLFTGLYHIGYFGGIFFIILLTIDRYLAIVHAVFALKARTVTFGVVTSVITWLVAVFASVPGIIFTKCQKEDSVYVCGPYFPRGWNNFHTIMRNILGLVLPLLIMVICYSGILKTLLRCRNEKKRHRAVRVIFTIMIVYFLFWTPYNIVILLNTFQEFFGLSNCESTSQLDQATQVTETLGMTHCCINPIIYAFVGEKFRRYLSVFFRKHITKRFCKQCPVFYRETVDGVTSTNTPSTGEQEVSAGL
Type: cell-based
Experimental: Calcium Mobilization Assay
CHOK1-CCR2B-A5 cells (from Euroscreen) stably overexpressing the human chemokine receptor 2 isoform B were cultured in Nutrient Hams F12 medium supplemented with 5% FBS, 100 U/ml penicillin, 100 μg/ml streptomycin, 400 μg/ml G418 and 5 μg/ml puromycin.
For the assay cells were grown overnight in 384-well black clear flat bottom polystyrene plates (Costar) at 37° C. at 5% CO2. After washing with DMEM, 20 mM Hepes, 2.5 mM probenecid, 0.1% BSA (DMEM assay buffer) cells were loaded with 4 μM Fluo-4 in the same DMEM assay buffer for 2 hours at 30° C. Excess dye was removed and cells were washed with DMEM assay buffer. 384-well compound plates were prepared with DMEM assay buffer/0.5% DMSO with or without various concentrations of test compounds. Usually compounds were tested for agonist and antagonist activity.
Test compounds were added to the assay plate and agonist activity was monitored as fluorescence for 80 seconds with a FLIPR (488 nm excitation; 510-570 nm emission; Molecular Devices). After 20-30 min. of incubation at 30° C., 20 nM MCP-1 (R&D; Roche) was added and fluorescence was monitored again for 80 seconds. Increases in intracellular calcium are reported as maximum fluorescence after agonist exposure minus basal fluorescence before exposure. Antagonist activity is indicated as inhibitor concentration required for 50% inhibition of specific calcium increases.
`COC[C@H](CCC(=O)N1CCC2(CC2)[C@H](O)C1)N1CCN(C(=O)Nc2ccc(C(F)(F)F)c(Cl)c2)[C@@H](C)C1=O` [Example 139, (S)-4-[(S)-4-((S)-4-Hydroxy-6-aza-spiro[2.5]oct-6-yl)-1-methoxymethyl-4-oxo-butyl]-2-methyl-3-oxo-piperazine-1-carboxylic acid (3-chloro-4-trifluoromethyl-phenyl)-amide] was tested, and the IC50 was 152 nM.
Work on `C[C@H]1C(=O)N(CCCC(=O)N2CCC3(CC3)[C@H](O)C2)CCN1C(=O)Nc1ccc(Cl)c(C(F)(F)F)c1` [Example 32, (S)-4-[4-((S)-4-Hydroxy-6-aza-spiro[2.5]oct-6-yl)-4-oxo-butyl]-2-methyl-3-oxo-piperazine-1-carboxylic acid (4-chloro-3-trifluoromethyl-phenyl)-amide] yielded an IC50 of 5.9 nM.
`C[C@H]1C(=O)N(CCC(=O)N2CCC(C(F)(F)F)CC2)CCN1C(=O)Nc1ccc(Cl)c(Cl)c1` [Example 24, (S)-2-Methyl-3-oxo-4-[3-oxo-3-(4-trifluoromethyl-piperidin-1-yl)-propyl]-piperazine-1-carboxylic acid (3,4-dichloro-phenyl)-amide] was tested, and the IC50 was 3170 nM.
Molecule `O=C(/C=C/c1cccc(Cl)c1)N1CCC(=O)N(C(CO)CC(=O)N2CCC3(CC3)[C@H](O)C2)CC1` (stereo partly drawn) [Example 11, 1-[(E)-3-(3-Chloro-phenyl)-acryloyl]-4-[(R,S)-3-((S)-4-hydroxy-6-aza-spiro[2.5]oct-6-yl)-1-hydroxymethyl-3-oxo-propyl]-[1,4]diazepan-5-one] has an IC50 of 464 nM.
`C[C@H]1C(=O)N(CCCC(=O)N2CCC3(CC3)[C@H](O)C2)[C@@H](C(N)=O)CN1C(=O)Nc1ccc(C(F)(F)F)c(Cl)c1` [Example 148, (3R,6S)—N1-(3-chloro-4-(trifluoromethyl)phenyl)-4-(4-((S)-4-hydroxy-6-azaspiro[2.5]octan-6-yl)-4-oxobutyl)-6-methyl-5-oxopiperazine-1,3-dicarboxamide] was tested, and the IC50 was 30.5 nM.
With `C[C@H]1C(=O)N([C@H](CO)CCC(=O)N2CCC3(CC3)[C@H](O)C2)CCN1C(=O)Nc1ccc(OC(F)(F)F)c(Cl)c1` [Example 55, (S)-4-[(S)-4-((S)-4-Hydroxy-6-aza-spiro[2.5]oct-6-yl)-1-hydroxymethyl-4-oxo-butyl]-2-methyl-3-oxo-piperazine-1-carboxylic acid (3-chloro-4-trifluoromethoxy-phenyl)-amide] the IC50 was 1.8 nM.
Molecule `O=C1CC2(CCN(C(=O)CCN3CCN(C(=O)/C=C/c4ccc(Cl)c(Cl)c4)CCC3=O)CC2)C(=O)N1` [Example 93, 8-(3-{4-[(E)-3-(3,4-Dichloro-phenyl)-acryloyl]-7-oxo-[1,4]diazepan-1-yl}-propionyl)-2,8-diaza-spiro[4.5]decane-1,3-dione] has an IC50 of 1160 nM.
With `COC(=O)[C@@H](CCC(=O)N1CCC2(CC2)[C@H](O)C1)N1CCN(C(=O)Nc2ccc(C(F)(F)F)c(Cl)c2)[C@@H](C)C1=O` [Example 145, (R)-2-[(S)-4-(3-Chloro-4-trifluoromethyl-phenylcarbamoyl)-3-methyl-2-oxo-piperazin-1-yl]-5-((S)-4-hydroxy-6-aza-spiro[2.5]oct-6-yl)-5-oxo-pentanoic acid methyl ester] the IC50 was 6310 nM.
`O=C(/C=C/c1ccc(Cl)c(Cl)c1)N1CCC(=O)N(C(CO)CC(=O)N2CCCCC2)CC1` (racemic) [Example 6, rac-(1-[(E)-3-(3,4-Dichloro-phenyl)-acryloyl]-4-(1-hydroxymethyl-3-oxo-3-piperidin-1-yl-propyl)-[1,4]diazepan-5-one)] was tested, and the IC50 was 2020 nM.
`C[C@H]1C(=O)N(CCC(O)C(=O)N2CCC3(CC3)[C@H](O)C2)CCN1C(=O)Nc1ccc(C(F)(F)F)c(C(F)(F)F)c1` (stereo partly drawn) [Example 135, (S)-4-[(R,S)-3-Hydroxy-4-((S)-4-hydroxy-6-aza-spiro[2.5]oct-6-yl)-4-oxo-butyl]-2-methyl-3-oxo-piperazine-1-carboxylic acid (3,4-bis-trifluoromethyl-phenyl)-amide] showed an IC50 of 62.2 nM.
